Here are results for seven compounds from ChEMBL document CHEMBL5108053 (J Med Chem, 2022).

SMILES strings stand for the structures.

Data set [1] in a line: Volume of distribution in C57BL/6 mouse at 1 mg/kg, iv or 10 mg/kg, po by HPLC analysis. The format is ADME, organism-based. The note with it: in vivo.
Data set [2] is described as follows: Oral bioavailability in C57BL/6 mouse at 1 mg/kg, iv or 10 mg/kg by HPLC analysis. The format is ADME, organism-based. The following applies: in vivo.
Data set [3] is described as follows: Lipophilicity, logD of the compound in Octanol/potassium phosphate buffer at pH 7.4 after 1 hr by shake-flask based LC-MS/MS analysis. The format is physicochemical. The following applies: octanol/water, pH 7.4, 1 h.
A short description of data set [4]: Stability in human hepatocytes assessed as intrinsic clearance at 2 uM measured per 10^6 cells incubated at 15 to 120 mins by LC-MS/MS analysis. The format is ADME, cell-based, Hepatocyte. The following applies: time 15-120 min.
Data set [5] can be described thus: Stability in mouse hepatocytes assessed as intrinsic clearance at 2 uM measured per 10^6 cells incubated at 15 to 120 mins by LC-MS/MS analysis. It is filed as ADME, cell-based, Hepatocyte. The following applies: time 15-120 min.

A word on the bioavailability: it is the share of a dose that reaches the circulation, judged against a reference dose that is usually intravenous. A lower bioavailability goes with little systemic uptake. What is called logD is the decadic logarithm of the distribution of all forms, ionised or not, between an organic phase and buffer at a given pH. Read a high logD as a more lipophilic compound.

Regarding `N#Cc1ccc(S[C@H]2O[C@H](CO)[C@H](O)[C@H](n3cc(-c4cc(F)c(F)c(F)c4)nn3)[C@H]2O)cc1Cl`, in data set [1], the Vd turned out to be 0.9 L/kg. Moreover, the bioavailability in data set [2] came out at 95%. The logD in data set [3] stood at 3.7. Further, the CLH came to 0.8 µL/min in data set [4] and 1.1 µL/min in data set [5].

The compound `OC[C@H]1O[C@H](Sc2cncc(Br)c2)[C@H](O)[C@@H](n2cc(-c3cc(F)c(F)c(F)c3)nn2)[C@H]1O` [SELVIGALTIN] came in with a Vd in data set [1] of 1.1 L/kg. Further, the bioavailability in data set [2] was 68%. In data set [3], the log distribution coefficient (logD) is on record as 3. The CLH in data set [4] is 0.15 µL/min.

In data set [3], `CC(=O)Nc1ccc(S[C@H]2O[C@H](CO)[C@H](O)[C@H](n3cc(-c4cc(F)c(F)c(F)c4)nn3)[C@H]2O)cc1` displayed a log distribution coefficient (logD) of 2.28.

As to `CCCCSC[C@H]1O[C@@H](S[C@@H]2O[C@H](CO)[C@H](O)[C@H](n3cc(-c4cccc(F)c4)nn3)[C@H]2O)[C@H](O)[C@@H](n2cc(-c3cccc(F)c3)nn2)[C@H]1O`, the logD in data set [3] was found to be 3.4.

The compound `OC[C@H]1O[C@@H](S[C@@H]2O[C@H](CO)[C@H](O)[C@H](n3cc(-c4cccc(F)c4)nn3)[C@H]2O)[C@H](O)[C@@H](n2cc(-c3cccc(F)c3)nn2)[C@H]1O` [OLITIGALTIN] gave a logD in data set [3] of 2.1.

In data set [3], `C[C@H]1O[C@@H](S[C@@H]2O[C@H](CO)[C@H](O)[C@H](n3cc(-c4cccc(F)c4)nn3)[C@H]2O)[C@H](O)[C@@H](n2cc(-c3cccc(F)c3)nn2)[C@H]1O` returned a logD of 2.4.

Compound `OC[C@H]1O[C@H](Sc2ccc(Cl)c(Cl)c2)[C@H](O)[C@@H](n2cc(-c3cc(F)c(F)c(F)c3)nn2)[C@H]1O` showed a Vd in data set [1] of 0.4 L/kg. This compound had a bioavailability in data set [2] of 75%. The compound further came in with a logD in data set [3] of 4.6. The CLH in data set [4] amounted to 0.7 µL/min; in data set [5] it was 0.8 µL/min.
